One compound from publication PMC6376136, “Impact of lipid binding on the tertiary structure and allergenic potential of Jug r 3, the non-specific lipid transfer protein from walnut” (Scientific Reports, 2019) can be followed below.

For this test, the target named is T1, Jug r 3 (Juglans regia, UniProt C5H617).
T1 construct: mature protein, secreted from Pichia pastoris GS115 (pPICZalphaA), signal peptide removed; four extra N-terminal residues EAEF; monomer
T1 sequence (C5H617 27-119): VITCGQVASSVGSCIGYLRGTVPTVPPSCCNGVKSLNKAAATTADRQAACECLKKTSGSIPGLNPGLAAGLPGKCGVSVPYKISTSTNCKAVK
The experiment in a line: ANS fluorescence displacement. Conditions: 10 uM protein, 10 uM ANS, protein:ligand 1:10 (100 uM ligand), overnight at 4 °C. The class given is binding.

As to `CCCCCCCC/C=C\CCCCCCCC(=O)O` [OLE, oleate], the “% reduction of ANS fluorescence at protein:ligand 1:10” value turned out to be 31%.
